Results reported in patent US8796259B2, “N3-heteroaryl substituted triazoles and N5-heteroaryl substituted triazoles useful as axl inhibitors” (Rigel Pharmaceuticals, Inc., priority 2006, dated 2014).

molecular target: T1, Axl (Homo sapiens, UniProt P30530); assay: Phospho-Akt in-cell Western assay (inhibition of Axl activity, Axl-antibody cross-linking stimulation); format: cell-based; conditions: Hela cells, phospho-Akt readout; compounds of formula (Ia), Table 1
T1 construct: endogenous in cells; host or cells: HeLa cells
T1 sequence (P30530 26-894): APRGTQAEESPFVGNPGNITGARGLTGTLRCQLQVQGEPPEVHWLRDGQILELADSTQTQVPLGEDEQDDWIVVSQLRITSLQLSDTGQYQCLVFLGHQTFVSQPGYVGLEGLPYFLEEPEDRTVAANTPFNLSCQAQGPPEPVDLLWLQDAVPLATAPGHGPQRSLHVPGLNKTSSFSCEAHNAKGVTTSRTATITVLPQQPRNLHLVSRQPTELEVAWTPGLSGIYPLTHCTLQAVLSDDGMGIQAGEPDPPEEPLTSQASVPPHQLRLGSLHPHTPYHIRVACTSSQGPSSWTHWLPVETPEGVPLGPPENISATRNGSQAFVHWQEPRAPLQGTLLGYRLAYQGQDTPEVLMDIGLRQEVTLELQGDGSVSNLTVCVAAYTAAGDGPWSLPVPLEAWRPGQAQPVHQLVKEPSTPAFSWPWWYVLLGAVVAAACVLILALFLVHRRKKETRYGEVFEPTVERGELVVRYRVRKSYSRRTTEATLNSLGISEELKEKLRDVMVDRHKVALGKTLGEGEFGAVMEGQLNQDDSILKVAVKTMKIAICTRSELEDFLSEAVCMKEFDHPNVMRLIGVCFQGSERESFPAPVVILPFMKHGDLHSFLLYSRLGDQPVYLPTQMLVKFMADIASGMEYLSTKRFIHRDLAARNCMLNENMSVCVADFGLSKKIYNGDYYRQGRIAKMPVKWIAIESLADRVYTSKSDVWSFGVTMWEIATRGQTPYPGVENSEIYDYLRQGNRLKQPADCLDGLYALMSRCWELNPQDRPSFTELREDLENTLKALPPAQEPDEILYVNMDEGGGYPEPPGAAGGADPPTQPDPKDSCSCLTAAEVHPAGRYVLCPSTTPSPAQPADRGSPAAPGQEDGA
Experimental: The compounds of the invention were tested in the following assay for their ability to inhibit Axl activity.
Phospho-Akt in-Cell Western Assay
• Cell culture plate: 96 well assay plate (Corning 3610), white, clear bottom, tissue-culture treated. • Cells: Hela cells. • Starvation medium: For Axl stimulation: 0.5% FCS (fetal calf serum) in DMEM, plus Axl/Fc (extracellular domain of AXL fused to immunoglobulin Fc region) (R&D, 154-AL) 500 ng/mL. • For EGF (epidermal growth factor) stimulation: 0.5% FCS in DMEM (Dulbecco's modified Eagles medium). • Poly-L-Lysine 0.01% solution (the working solution): 10 μg/ml, dilute In PBS (phosphate buffered saline). • Axl antibody cross-linking: • 1st: Mouse anti-Axl (R&D, MAB154). • 2nd: Biotin-SP-conjugated AffiniPure goat anti-mouse IgG (H+L) (Jackson ImmunoResearch #115-065-003). • Fixing buffer: 4% formaldehyde in PBS. • Wash buffer: 0.1% TritonX-100 in PBS. • Quenching buffer: 3% H2O2, 0.1% Azide in wash buffer, Azide and hydrogen peroxide (H2O2) are added fresh. • Blocking buffer: 5% BSA in TBST (tris buffered saline plus 0.1% Tween 20). • Primary antibody: Rabbit anti-human Phospho-Akt antibody (Cell Signaling 9271): 1×250 diluted in blocking buffer. • Secondary antibody: HRP (horse radish peroxidase)-conjugated Goat anti-Rabbit secondary, stock solution: Jackson ImmunoResearch (Goat anti-Rabbit HRP, #111-035-144) 1:1 diluted in glycerol, store at −20° C. The working solution: 1×2000 dilution of stock in blocking buffer. • Chemiluminescent working solution (Pierce, 37030): SuperSignal ELISA (enzyme linked immunosorbant assay) Pico Chemiluminescent substrate. • Crystal Violet solution: Stock: 2.5% Crystal violet in methanol, filtered and kept at ambient temperature. The working solution: dilute the stock 1:20 with PBS immediately before use.
10% SDS: working solution: 5% SDS (sodium dodecylsulfate), diluted in PBS
A 96 well TC (tissue culture treated) plate was coated with 10 μg/mL poly-L-Lysine at 37° C. for 30 min, washed twice with PBS, and air-dried for 5 minutes before cells were added. Hela cells were seeded at 10,000 cells/well and the cells were starved in 100 μL starvation medium containing Axl/Fc for 24 hrs.
The cells were pre-treated with test compounds by adding 100 μL of 2× test compound to the starvation medium on the cells. The cells were incubated at 37° C. for 1 hr before stimulation.
The cells were stimulated by Axl-antibody cross-linking as follows: A 5×1st/2nd Axl antibody mixture was made (37.5 μg/mL 1st/100 μg/mL 2 nd) in starvation medium and nutated at 4° C. with thorough mixing for 1-2 hours for clustering. The resulting mix was warmed to 37° C. 50 μL of 5×Axl 1st/2nd of antibody cluster was added to the cells and the cells were incubated at 37° C. for 5 min.
After 5 minutes stimulation, the plate was flicked to remove medium and the plate was tapped onto paper towels. Formaldehyde (4.0% in PBS, 100 μL) was added to fix the cells and the cells were incubated at ambient temperature for 20 min without shaking.
The cells were washed with a plate washer buffer to remove the formaldehyde solution. The plate was flicked to removed excess wash buffer and tapped onto paper towels. Quenching buffer (100 μL) was added to each well and the cells were incubated at ambient temperature for 20 minutes without shaking.
The cells were washed with a plate washer buffer to remove the quenching buffer. Blocking buffer (100 μL) was added and the cells were incubated at ambient temperature for at least an hour with gentle shaking.
The cells were washed with a plate washer buffer and diluted primary antibody (50 μL) was added to each well (blocking buffer was added to the negative control wells instead). The plates were incubated overnight at 4° C. with gentle shaking.
The wash buffer was removed, diluted secondary antibody (100 μL) was added, and the cells were incubated at ambient temperature for 1 hour with gentle shaking. […]

| Compound | IC50 |
| --- | --- |
| Cc1csc2c(-n3nc(Nc4ccc(N5CCC(CN6CCCC6)CC5)nc4)nc3N)nc(Cl)nc12 [compound 33, 1-(2-chloro-7-methylthieno [3,2-d]pyrimidin-4-yl)-N^3-(6-(4-(pyrrolidin-1-ylmethyl)piperidin-1-yl)pyridin-3-yl)-1H-1,2,4-triazole-3,5-diamine] | < 1000 nM |
| COc1cc2ncnc(-n3nc(Nc4ccc(N5CCC(CN6CCCC6)CC5)nc4)nc3N)c2cc1OC [compound 34] | < 1000 nM |
| Cc1csc2c(-n3nc(Nc4ccc(N5CCC(N6CCCCCC6)CC5)nc4)nc3N)nc(Cl)nc12 [compound 35, 1-(2-chloro-7-methylthieno [3,2-d]pyrimidin-4-yl)-N^3-(6-(4-(azepan-1-yl)piperidin-1-yl)pyridin-3-yl)-1H-1,2,4-triazole-3,5-diamine] | < 1000 nM |
| CCN(CC)CC1CCCN1c1ccc(Nc2nc(N)n(-c3nc(Cl)nc4c(C)csc34)n2)cn1 (centres unmarked) [compound 38, 1-(2-chloro-7-methylthieno [3,2-d]pyrimidin-4-yl)-N^3-(6-(2-diethylamino-methyl-pyrrolidin-1-yl)pyridin-3-yl)-1H-1,2,4-triazole-3,5-diamine] | < 1000 nM |
| CCN(CC)CC1CCCN1c1ccc(Nc2nc(N)n(-c3ncnc4cc(OC)c(OC)cc34)n2)cn1 (centres unmarked) [compound 39, 1-(6,7-dimethoxy-quinazoline-4-yl)-N^3-(6-(2-diethyl-aminomethyl-pyrrolidin-1-yl)pyridin-3-yl)-1H-1,2,4-triazole-3,5-diamine] | < 1000 nM |
| COc1cc2ncnc(-n3nc(Nc4ccc5sc(C(=O)N6CCN(CCN(C)C)CC6)cc5c4)nc3N)c2cc1OC [compound 40, 1-(6,7-dimethoxy-quinazoline-4-yl)-N^3-(2-(1-(4-(2-(dimethyl-amino)ethyl)piperazin-1-yl)oxomethyl)benzo[b]thio-phen-5-yl)-1H-1,2,4-triazole-3,5-diamine] | 1000 to 10000 nM |
| Cc1cc(Nc2nc(N)n(-c3nc(Cl)nc4c(C)csc34)n2)cnc1N1CCC(N2CCCC2)CC1 [compound 41, 1-(2-chloro-7-methylthieno [3,2-d]pyrimidin-4-yl)-N^3-(6-(4-(pyrrolidin-1-yl)piperidin-1-yl)-5-methylpyridin-3-yl)-1H-1,2,4-triazole-3,5-diamine] | < 1000 nM |
| COc1cc2ncnc(-n3nc(Nc4cnc(N5CCC(N6CCCC6)CC5)c(C)c4)nc3N)c2cc1OC [compound 42, 1-(6,7-dimethoxy-quinazoline-4-yl)-N^3-(6-(4-(pyrrolidin-1-yl)piperidin-1-yl)-5-methylpyridin-3-yl)-1H-1,2,4-triazole-3,5-diamine] | < 1000 nM |
| Cc1cc(Nc2nc(N)n(-c3nc4ccccc4c4ccccc34)n2)cnc1N1CCC(N2CCCC2)CC1 [compound 43, 1-(phenanthridin-6-yl)-N^3-(6-(4-(pyrrolidin-1-yl)piperidin-1-yl)-5-methylpyridin-3-yl)-1H-1,2,4-triazole-3,5-diamine] | < 1000 nM |
| CCN(CC)C1CCN(c2ccc(Nc3nc(N)n(-c4nc(Cl)nc5c(C)csc45)n3)cn2)C1 (centres unmarked) [compound 44, 1-(2-chloro-7-methylthieno [3,2-d]pyrimidin-4-yl)-N^3-(6-(3-diethylamino-pyrrolidin-1-yl)pyridin-3-yl)-1H-1,2,4-triazole-3,5-diamine] | < 1000 nM |

Now from value to molecule:

| IC50 | Compound |
| --- | --- |
| < 1000 nM | Cc1csc2c(-n3nc(Nc4ccc(N5CCC(N6CCN(C)CC6)CC5)nc4)nc3N)nc(Cl)nc12 [compound 22] |
| < 1000 nM | COc1cc2ncnc(-n3nc(Nc4ccc(N5CCC(N6CCCC6)CC5)nc4)nc3N)c2cc1OC [compound 23, 1-(6,7-dimethoxy-quinazoline-4-yl)-N^3-(6-(4-pyrrolidin-1-ylpiperidin-1-yl)pyridine-3-yl)-1H-1,2,4-triazole-3,5-diamine] |
| < 1000 nM | Cc1csc2c(-n3nc(Nc4ccc(N5CCN(C6CC7CCC6C7)CC5)nc4)nc3N)nc(Cl)nc12 (centres unmarked) [compound 24, 1-(2-chloro-7-methylthieno [3,2-d]pyrimidine-4-yl)-N^3-(6-(4-(bicyclo[2.2.1]heptan-2-yl)piperazin-1-yl)pyridin-3-yl)-1H-1,2,4-triazole-3,5-diamine] |
| < 1000 nM | Cc1csc2c(-n3nc(Nc4cnc5c(c4)CNCC5)nc3N)nc(Cl)nc12 [compound 25, 1-(2-chloro-7-methylthieno [3,2-d]pyrimidine-4-yl)-N^3-(5,6,7,8-tetrahydro-1,6-naphthyridin-3-yl)-1H-1,2,4-triazole-3,5-diamine] |
| < 1000 nM | COc1cc2ncnc(-n3nc(Nc4ccc(N5CCC(N6CCCCC6)CC5)nc4)nc3N)c2cc1OC [compound 27, 1-(6,7-dimethoxy-quinazoline-4-yl)-N^3-(6-(4-piperidin-1-ylpiperidin-1-yl)pyridine-3-yl)-1H-1,2,4-triazole-3,5-diamine] |
| < 1000 nM | Cc1csc2c(-n3nc(Nc4ccc(N5CCC(N6CCCCC6)CC5)nc4)nc3N)nc(Cl)nc12 [compound 28, 1-(2-chloro-7-methylthieno [3,2-d]pyrimidine-4-yl)-N^3-(6-(4-piperidin-1-ylpiperidin-1-yl)pyridine-3-yl)-1H-1,2,4-triazole-3,5-diamine] |
| < 1000 nM | Cc1csc2c(-n3nc(Nc4cnc5c(c4)CC(NC(=O)CN(C)C)CC5)nc3N)nc(Cl)nc12 (centres unmarked) [compound 29, 1-(2-chloro-7-methylthieno [3,2-d]pyrimidin-4-yl)-N^3-(6-(2-(dimethyl-amino)-1-oxyethyl-amino)-5,6,7,8-tetrahydro-quinolin-3-yl)-1H-1,2,4-triazole-3,5-diamine] |
| < 1000 nM | Cc1csc2c(-n3nc(Nc4cnc5c(c4)CC(N)CC5)nc3N)nc(Cl)nc12 (centres unmarked) [compound 30, 1-(2-chloro-7-methylthieno [3,2-d]pyrimidin-4-yl)-N^3-(6-amino-5,6,7,8-tetrahydro-quinolin-3-yl)-1H-1,2,4-triazole-3,5-diamine] |
| < 1000 nM | CN1CCN(c2ccc(Nc3nc(N)n(-c4nccc5ccccc45)n3)cn2)CC1 [compound 31, 1-(isoquinolin-1-yl)-N^3-(6-(4-methyl-piperazin-1-yl)pyridin-3-yl)-1H-1,2,4-triazole-3,5-diamine] |
| < 1000 nM | Cc1csc2c(-n3nc(Nc4cnc5[nH]ccc5c4)nc3N)nc(Cl)nc12 [compound 32, 1-(2-chloro-7-methylthieno [3,2-d]pyrimidin-4-yl)-N^3-(1H-pyrrolo[2,3-b]pyridin-5-yl)-1H-1,2,4-triazole-3,5-diamine] |
